Measurements as given in the supplement of paper PMC10307832.

Assays:
Experiment in all cases: relative viability (nuclei count vs DMSO), 5 days (fraction); higher = more cells survive
[1] = tested on: NCI-H358
How it was run: (§1)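 Relative viability was taken as the ratio of nuclei in treated wells to nuclei in vehicle wells. Lung cancer cell lines in 1536-well plates received compounds by pin tool one day after seeding, either one drug alone or a fixed anchor-drug dose plus five library-drug doses (not always all listed) in √10 steps. Nuclei were counted on 4× images after 5 days of treatment, and values are medians of duplicate plates.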

[2] = tested on: PC-14
How it was run: as §1

[3] = tested on: EPLC-272H
How it was run: as §1

[4] = tested on: ABC-1
How it was run: as §1

[5] = tested on: NCI-H522
How it was run: as §1

[6] = tested on: NCI-H1915
How it was run: as §1

[7] = tested on: NCI-H460
How it was run: as §1

[8] = tested on: NCI-H2085
How it was run: as §1

[9] = tested on: NCI-H2342
How it was run: as §1

[10] = tested on: NCI-H2009
How it was run: as §1

[11] = tested on: HCC-78
How it was run: as §1

[12] = tested on: NCI-H650
How it was run: as §1

[13] = tested on: NCI-H1993
How it was run: as §1

[14] = tested on: LC-2-ad
How it was run: as §1

[15] = tested on: SW 1573
How it was run: as §1

[16] = tested on: NCI-H2126
How it was run: as §1

[17] = tested on: HCC-15
How it was run: as §1

[18] = tested on: HARA
How it was run: as §1

[19] = tested on: NCI-H838
How it was run: as §1

[20] = tested on: NCI-H2347
How it was run: as §1

[21] = tested on: COR-L23
How it was run: as §1

[22] = tested on: LU99A
How it was run: as §1

[23] = tested on: NCI-H1651
How it was run: as §1

[24] = tested on: UMC-11
How it was run: as §1

C[C@@H]1CN(CC(=O)Nc2ccc3c(c2)Cc2cccc(-c4cc(=O)cc(N5CCOCC5)o4)c2S3)C[C@H](C)O1 + Nc1ncn([C@H]2C[C@H](O)[C@@H](CO)O2)c(=O)n1 [Decitabine] (partner 2 µM)
relative viability ([1]; first compound 0.04 µM): 0.181 | relative viability ([1]; first compound 0.1265 µM): 0.204 | relative viability ([1]; first compound 0.4 µM): 0.172 | relative viability ([1]; first compound 4 µM): 0.14 | relative viability ([2]; first compound 0.04 µM): 0.235 | relative viability ([2]; first compound 0.1265 µM): 0.253 | relative viability ([2]; first compound 0.4 µM): 0.192 | relative viability ([2]; first compound 4 µM): 0.167 | relative viability ([3]; first compound 0.04 µM): 0.386 | relative viability ([3]; first compound 0.1265 µM): 0.384 | relative viability ([3]; first compound 0.4 µM): 0.394 | relative viability ([3]; first compound 4 µM): 0.364 | relative viability ([4]; first compound 0.04 µM): 0.303 | relative viability ([4]; first compound 0.1265 µM): 0.897 | relative viability ([4]; first compound 0.4 µM): 0.947 | relative viability ([4]; first compound 4 µM): 1.48 | relative viability ([5]; first compound 0.04 µM): 0.663 | relative viability ([5]; first compound 0.1265 µM): 0.689 | relative viability ([5]; first compound 0.4 µM): 0.641 | relative viability ([5]; first compound 4 µM): 0.724 | relative viability ([6]; first compound 0.04 µM): 0.259 | relative viability ([6]; first compound 0.1265 µM): 0.279 | relative viability ([6]; first compound 0.4 µM): 0.283 | relative viability ([6]; first compound 4 µM): 0.29 | relative viability ([7]; first compound 0.04 µM): 0.401 | relative viability ([7]; first compound 0.1265 µM): 0.466 | relative viability ([7]; first compound 0.4 µM): 0.379 | relative viability ([7]; first compound 4 µM): 0.335 | relative viability ([8]; first compound 0.04 µM): 0.564 | relative viability ([8]; first compound 0.1265 µM): 0.589 | relative viability ([8]; first compound 0.4 µM): 0.605 | relative viability ([8]; first compound 4 µM): 0.584 | relative viability ([9]; first compound 0.04 µM): 0.76 | relative viability ([9]; first compound 0.1265 µM): 0.779 | relative viability ([9]; first compound 0.4 µM): 0.71 | relative viability ([9]; first compound 4 µM): 0.704 | relative viability ([10]; first compound 0.04 µM): 0.31 | relative viability ([10]; first compound 0.1265 µM): 0.363 | relative viability ([10]; first compound 0.4 µM): 0.383 | relative viability ([10]; first compound 4 µM): 0.34 | relative viability ([11]; first compound 0.04 µM): 0.65 | relative viability ([11]; first compound 0.1265 µM): 0.676 | relative viability ([11]; first compound 0.4 µM): 0.688 | relative viability ([11]; first compound 4 µM): 0.732 | relative viability ([12]; first compound 0.04 µM): 0.346 | relative viability ([12]; first compound 0.1265 µM): 0.336 | relative viability ([12]; first compound 0.4 µM): 0.377 | relative viability ([12]; first compound 4 µM): 0.341 | relative viability ([13]; first compound 0.04 µM): 0.701 | relative viability ([13]; first compound 0.1265 µM): 0.55 | relative viability ([13]; first compound 0.4 µM): 0.566 | relative viability ([13]; first compound 4 µM): 0.644 | relative viability ([14]; first compound 0.04 µM): 0.939 | relative viability ([14]; first compound 0.1265 µM): 0.786 | relative viability ([14]; first compound 0.4 µM): 0.792 | relative viability ([14]; first compound 4 µM): 0.628 | relative viability ([15]; first compound 0.04 µM): 0.572 | relative viability ([15]; first compound 0.1265 µM): 0.56 | relative viability ([15]; first compound 0.4 µM): 0.483 | relative viability ([15]; first compound 4 µM): 0.615 | relative viability ([16]; first compound 0.04 µM): 0.543 | relative viability ([16]; first compound 0.1265 µM): 0.567 | relative viability ([16]; first compound 0.4 µM): 0.623 | relative viability ([16]; first compound 4 µM): 0.593 | relative viability ([17]; first compound 0.04 µM): 0.621 | relative viability ([17]; first compound 0.1265 µM): 0.594 | relative viability ([17]; first compound 0.4 µM): 0.558 | relative viability ([17]; first compound 4 µM): 0.59 | relative viability ([18]; first compound 0.04 µM): 0.594 | relative viability ([18]; first compound 0.1265 µM): 0.522 | relative viability ([18]; first compound 0.4 µM): 0.454 | relative viability ([18]; first compound 4 µM): 0.717 | relative viability ([19]; first compound 0.04 µM): 0.46 | relative viability ([19]; first compound 0.1265 µM): 0.472 | relative viability ([19]; first compound 0.4 µM): 0.518 | relative viability ([19]; first compound 4 µM): 0.492 | relative viability ([20]; first compound 0.04 µM): 0.581 | relative viability ([20]; first compound 0.1265 µM): 0.624 | relative viability ([20]; first compound 0.4 µM): 0.693 | relative viability ([20]; first compound 4 µM): 0.637 | relative viability ([21]; first compound 0.04 µM): 0.431 | relative viability ([21]; first compound 0.1265 µM): 0.445 | relative viability ([21]; first compound 0.4 µM): 0.569 | relative viability ([21]; first compound 4 µM): 0.612 | relative viability ([22]; first compound 0.04 µM): 0.815 | relative viability ([22]; first compound 0.1265 µM): 0.928 | relative viability ([22]; first compound 0.4 µM): 0.859 | relative viability ([22]; first compound 4 µM): 0.851 | relative viability ([23]; first compound 0.04 µM): 0.628 | relative viability ([23]; first compound 0.1265 µM): 0.628 | relative viability ([23]; first compound 0.4 µM): 0.585 | relative viability ([23]; first compound 4 µM): 0.599 | relative viability ([24]; first compound 0.04 µM): 0.477 | relative viability ([24]; first compound 0.1265 µM): 0.62 | relative viability ([24]; first compound 0.4 µM): 0.728 | relative viability ([24]; first compound 4 µM): 0.513
